According to US20240393292A1, “ALLERGY ANTIGEN AND EPITOPE THEREOF” (HOYU CO., LTD., priority 2019, published 2024):
Each block holds one substance with its values, some of them ahead of it.

System: IgE antibodies from patients
Experiment: Wheat epitope mapping (2): overlapping 10-amino-acid peptide fragments shifted by one amino acid;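 on Rank of partial sequence as epitope binding to IgE antibody: key = sequence deemed particularly important within the common 15-residue sequence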;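 on epitope sequence binding to IgE antibody, rank (Key/Preferably/More preferably): key of grades: preferably = shorter partial sequence still acting as epitope; more preferably = sequence improving IgE binding; key = particularly important sequence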
Assay type: binding, human
How it was run: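 Cellulose-bound 10-mer peptides offset by one residue were probed with patient serum IgE and detected by chemiluminescence. Secondary-antibody-only signals were subtracted per peptide. Residual binding was expressed as % of the parent overlapping peptide, scored as none (<30%), poor (30–<50%), somewhat poor (50–<70%) or retained (≥70%).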

[1] = serum of patient P50 (child, general immediate type allergy to wheat), sequence without X

Epitope sequence binding to IgE antibody, rank of the sequence (Key/Preferably/More preferably/Further preferably) [1]: Preferably
Substance: 2406 (TEIVL; REGION 1..5: note = epitope) [compound 2406]

epitope sequence binding to IgE antibody, rank (Key/Preferably/More preferably) (serum of patient P27 (WDEIA)): Key
Substance: 1814 (KELEAL; REGION 1..6: note = epitope) [compound 1814]

Epitope sequence binding to IgE antibody, rank of the sequence (Key/Preferably/More preferably) (serum of patient P18 (WDEIA), sequence without X): Key
Substance: 2227 (LLRGIRN; REGION 1..7: note = epitope) [compound 2227]

epitope sequence binding to IgE antibody, rank (Key/Preferably/More preferably) (serum of patient G1 (adult, general immediate type allergy to wheat)): Preferably
Substance: 1739 (KEAANFT; REGION 1..7: note = epitope) [compound 1739]

Epitope sequence binding to IgE antibody, rank of the sequence (serum of patient P18 (WDEIA), partial sequence): Key
Substance: 2717 (YKIGG; REGION 1..5: note = epitope) [compound 2717]

Epitope sequence binding to IgE antibody, rank of the sequence (serum of patient P26 (WDEIA), partial sequence): Key
Substance: 2684 (YKGPTL; REGION 1..6: note = epitope) [compound 2684]

Epitope sequence binding to IgE antibody, rank of the sequence (serum of patient P17 (WDEIA), partial sequence): Key
Substance: 2713 (KIGG; REGION 1..4: note = epitope) [compound 2713]

Epitope sequence binding to IgE antibody, rank of the sequence (serum of patient P25 (WDEIA), partial sequence): Preferably
Substance: 2720 (IGGIGTVPVG; REGION 1..10: note = epitope) [compound 2720]

epitope sequence binding to IgE antibody, rank (Key/Preferably/More preferably) (serum of patient P8 (WDEIA)): Key
Substance: 1757 (KVGYNP; REGION 1..6: note = epitope) [compound 1757]

epitope sequence binding to IgE antibody, rank (Key/Preferably/More preferably) (serum of patient P12 (WDEIA)): Preferably
Substance: 1845 (YTVRTLQR; REGION 1..8: note = epitope) [compound 1845]

Epitope sequence binding to IgE antibody, rank of the sequence (Key/Preferably/More preferably) (serum of patient P14 (WDEIA), sequence without X): Preferably
Substance: 2280 (DKRVIERFEK; REGION 1..10: note = epitope) [compound 2280]

Epitope sequence binding to IgE antibody, rank of the sequence (serum of patient G7 (adult, general immediate type allergy to wheat), partial sequence): Key
Substance: 2673 (EAAEMNKR; REGION 1..8: note = epitope) [compound 2673]

Epitope sequence binding to IgE antibody, rank of the sequence (Key/Preferably/More preferably) (serum of patient P30 (WDEIA), sequence without X): Key
Substance: 2235 (SRLLRGIRN; REGION 1..9: note = epitope) [compound 2235]

Epitope sequence binding to IgE antibody, rank of the sequence (serum of patient P22 (WDEIA), partial sequence): Key
Substance: 2683 (KGPTL; REGION 1..5: note = epitope) [compound 2683]

Epitope sequence binding to IgE antibody, rank of the sequence (Key/Preferably/More preferably) (serum of patient P36 (WDEIA), sequence without X): Key
Substance: 2243 (RLLRGIRNY; REGION 1..9: note = epitope) [compound 2243]

The next lines start with the substance.

Substance: 1671 (YNPDKVPF; REGION 1..8: note = epitope) [compound 1671]
Rank of partial sequence as epitope binding to IgE antibody (serum of patient G4 (adult, general immediate type allergy to wheat), sequence without X): Key

Substance: 1560 (QQQFLGQQ; REGION 1..8: note = epitope) [compound 1560]
Rank of partial sequence as epitope binding to IgE antibody [1]: Key

Substance: 1344 (INVEN; REGION 1..5: note = epitope) [compound 1344]
Epitope sequence binding to IgE antibody, rank of the sequence (serum of patient P33 (WDEIA), sequence without X): Preferably

Substance: 1460 (LQPQQPISQ; REGION 1..9: note = epitope) [compound 1460]
Rank of partial sequence as epitope binding to IgE antibody (serum of patient P24 (WDEIA), sequence without X): More preferably

Substance: 1580 (QPFPQTQQPQ; REGION 1..10: note = epitope) [compound 1580]
Rank of partial sequence as epitope binding to IgE antibody (serum of patient P20 (WDEIA), sequence without X): Further preferably

Substance: 1472 (YLQPQQPIS; REGION 1..9: note = epitope) [compound 1472]
Rank of partial sequence as epitope binding to IgE antibody (serum of patient P27 (WDEIA), sequence without X): Preferably

Substance: 1259 (LPRS; REGION 1..4: note = epitope) [compound 1259]
Epitope sequence binding to IgE antibody, rank of the sequence (Key/Preferably/More preferably/Further preferably) (serum of patient P2 (WDEIA), sequence without X): Key

Substance: 1200 (QQFPGQQQQ; REGION 1..9: note = epitope) [compound 1200]
Epitope sequence binding to IgE antibody, rank of the sequence (serum of patient P28 (WDEIA), sequence without X): Key

Substance: 1507 (YLQPQ; REGION 1..5: note = epitope) [compound 1507]
Rank of partial sequence as epitope binding to IgE antibody (serum of patient G9 (adult, general immediate type allergy to wheat), sequence without X): Key

Substance: 1436 (LQPQQP; REGION 1..6: note = epitope) [compound 1436]
Rank of partial sequence as epitope binding to IgE antibody (serum of patient P16 (WDEIA), sequence without X): Key

Substance: 1659 (YNPDKVPF; REGION 1..8: note = epitope) [compound 1659]
Rank of partial sequence as epitope binding to IgE antibody (serum of patient G1 (adult, general immediate type allergy to wheat), sequence without X): Preferably

Substance: 1227 (PQQPPC; REGION 1..6: note = epitope) [compound 1227]
Epitope sequence binding to IgE antibody, rank of the sequence (serum of patient P12 (WDEIA), sequence without X): Key
